From US10035800B2 (AbbVie Inc., priority 2013, dated 2018)

How the values were obtained:
[1] = biological target: T1, BRD4 (BDI_K57-E168) (Homo sapiens, UniProt O60885); experiment: TR-FRET bromodomain binding assay, first bromodomain of BRD4; details: TR-FRET assay protocol G (compound 0.92 μM-15 pM); 100 nM probe
T1 construct: BD1: amino acids K57-E168; made in house
Summary of the method: (§1)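 TR-FRET displacement of an Alexa647-labelled BET-inhibitor probe from His-tagged BRD4 BD1 or BD2 (8 nM), read via 1 nM Eu-anti-His antibody after 1 h at room temperature. Buffer was 20 mM sodium phosphate pH 6.0 with 2% DMSO. Probe was 100 nM for BDI and 30 nM for BDII. IC50 came from 4-parameter fits, and Ki from IC50, probe Kd and probe concentration.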

[2] = system: breast cancer cell line MX-1; experiment: MX-1 cell line proliferation assay; format: cell-based; details: MX-1 cells, 3-day proliferation assay, Cell Titer Glo; read-out: Cellular proliferation: EC50
Summary of the method: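 MX-1 cells at 5000/well, in RPMI 1640 with 10% FBS, were exposed to compounds for 3 days. Final concentrations ranged 3 μM–0.1 nM or 1 μM–0.03 nM, in 3-fold steps. Cell Titer Glo luminescence was normalized to DMSO and fitted sigmoidally for EC50; overall MSR 2.1.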

[3] = biological target: T2, BRD4 (BDII_E352-M457) (Homo sapiens, UniProt O60885); experiment: TR-FRET bromodomain binding assay, second bromodomain of BRD4; details: TR-FRET assay protocol G (compound 0.92 μM-15 pM); 30 nM probe
T2 construct: protocol; made in house
Summary of the method: as §1

Row | Compound | Ki [1] [nM] | EC50 [2] [nM] | Ki [3] [nM]
1 | CCNC(=O)c1[nH]c2c(=O)n(C)cc3c2c1CN(c1ccc(Cl)cc1)c1ccccc1-3 [Example 127, 4-(4-chlorophenyl)-N-ethyl-10-methyl-11-oxo-3,4,10,11-tetrahydro-1H-1,4,10-triazadibenzo[cd,f]azulene-2-carboxamide] | 2.68 | 41.7 | 1.35
2 | CC(=O)OCC(CCC1c2c[nH]c3c(=O)n(C)cc(c23)-c2cc(CS(C)(=O)=O)ccc2N1c1ccc(F)cc1F)OC(C)=O (stereo not drawn) [Example 133, 4-(4-(2,4-difluorophenyl)-10-methyl-7-((methylsulfonyl)methyl)-11-oxo-3,4,10,11-tetrahydro-1H-1,4,10-triazadibenzo[cd,f]azulen-3-yl)butane-1,2-diyl diacetate] | 9.29 | 204 | 1.4
3 | Cn1cc2c3c(c[nH]c3c1=O)CN(CCc1ccccc1)c1c(F)cc(F)cc1-2 [Example 55, 5,7-difluoro-10-methyl-4-phenethyl-3,4-dihydro-1H-1,4,10-triazadibenzo[cd,f]azulen-11(10H)-one] | 8.96 | 146 | 15.9
4 | CN1CCN(Cc2[nH]c3c(=O)n(C)cc4c3c2CN(c2ccc(Cl)cc2)c2ccccc2-4)CC1 [Example 146, 4-(4-chlorophenyl)-10-methyl-2-((4-methylpiperazin-1-yl)methyl)-3,4-dihydro-1H-1,4,10-triazadibenzo[cd,f]azulen-11(10H)-one] | 1.42 | 124 | 17
5 | Cn1cc2c3c(c[nH]c3c1=O)C(c1cccc(C#N)c1)N(c1ccc(F)cc1F)c1ccc(CS(C)(=O)=O)cc1-2 (stereo not drawn) [Example 237, 3-(4-(2,4-difluorophenyl)-10-methyl-7-((methylsulfonyl)methyl)-11-oxo-3,4,10,11-tetrahydro-1H-1,4,10-triazadibenzo[cd,f]azulen-3-yl)benzonitrile] | 21.8 | 313 | 12.1
6 | Cn1cc2c3c(c[nH]c3c1=O)CN(c1cncnc1)c1ccc(CS(C)(=O)=O)cc1-2 [Example 248, 10-methyl-7-((methylsulfonyl)methyl)-4-(pyrimidin-5-yl)-3,4-dihydro-1H-1,4,10-triazadibenzo[cd,f]azulen-11(10H)-one] | 3.39 | 25.6 | 3.29
7 | CNCCCC1c2c[nH]c3c(=O)n(C)cc(c23)-c2cc(CS(C)(=O)=O)ccc2N1c1ccc(F)cc1F (stereo not drawn) [Example 174, 4-(2,4-difluorophenyl)-10-methyl-3-(3-(methylamino)propyl)-7-((methylsulfonyl)methyl)-3,4-dihydro-1H-1,4,10-triazadibenzo[cd,f]azulen-11(10H)-one] | 12.6 | 239 | 1.53
8 | Cn1cc2c3c(c[nH]c3c1=O)CN(CC(C)(C)CN1CCOCC1)c1ccc(CS(C)(=O)=O)cc1-2 [Example 257, 4-(2,2-dimethyl-3-morpholinopropyl)-10-methyl-7-((methylsulfonyl)methyl)-3,4-dihydro-1H-1,4,10-triazadibenzo[cd,f]azulen-11(10H)-one] | 2.34 | 21.1 | 9.19
9 | CC(=O)NC1CCC(N2Cc3c[nH]c4c(=O)n(C)cc(c34)-c3cc(CS(C)(=O)=O)ccc32)CC1 (mixture of isomers) [Example 243, N-(4-(10-methyl-7-((methylsulfonyl)methyl)-11-oxo-10,11-dihydro-1H-1,4,10-triazadibenzo[cd,f]azulen-4(3H)-yl)cyclohexyl)acetamide] | 1.85 | 153 | 3.47
10 | Cn1cc2c3c(c[nH]c3c1=O)CN(C(=O)Oc1ccc(F)cc1)c1ccc(CS(C)(=O)=O)cc1-2 [Example 94, 4-fluorophenyl 10-methyl-7-((methylsulfonyl)methyl)-11-oxo-10,11-dihydro-1H-1,4,10-triazadibenzo[cd,f]azulene-4(3H)-carboxylate] | 6.03 | 6.02 | 3.49
11 | Cn1cc2c3c(c[nH]c3c1=O)CN(c1ccc(Cl)cn1)c1ccc(CS(C)(=O)=O)cc1-2 [Example 245, 4-(5-chloropyridin-2-yl)-10-methyl-7-((methylsulfonyl)methyl)-3,4-dihydro-1H-1,4,10-triazadibenzo[cd,f]azulen-11(10H)-one] | 0.54 | 1.09 | 0.94
12 | 10-methyl-4-(pyridin-2-yl)-7-(pyrrolidin-1-ylsulfonyl)-3,4-dihydro-1H-1,4,5,10-tetraazadibenzo[cd,f]azulen-11(10H)-one [Example 266] | 17.8 | 42.7 | 8.15
13 | Cn1cc2c3c(c[nH]c3c1=O)C(CN1C(=O)c3ccccc3C1=O)N(c1ccc(F)cc1F)c1ccc(CS(C)(=O)=O)cc1-2 (stereo not drawn) [Example 117, 2-((4-(2,4-difluorophenyl)-10-methyl-7-((methylsulfonyl)methyl)-11-oxo-3,4,10,11-tetrahydro-1H-1,4,10-triazadibenzo[cd,f]azulen-3-yl)methyl)isoindoline-1,3-dione] | 72.3 | > 1000 | 1.27
14 | Cn1cc2c3c(c[nH]c3c1=O)C(CCC(=O)NC1CCNCC1)N(c1ccc(F)cc1F)c1ccc(CS(C)(=O)=O)cc1-2 (stereo not drawn) [Example 132, 3-(4-(2,4-difluorophenyl)-10-methyl-7-((methylsulfonyl)methyl)-11-oxo-3,4,10,11-tetrahydro-1H-1,4,10-triazadibenzo[cd,f]azulen-3-yl)-N-(piperidin-4-yl)propanamide] | 11.3 | > 1000 | 3.14
15 | Cn1cc(-c2[nH]c3c(=O)n(C)cc4c3c2CN(c2ccc(F)cc2F)c2ccc(S(C)(=O)=O)cc2-4)cn1 [Example 270, 4-(2,4-difluorophenyl)-10-methyl-2-(1-methyl-1H-pyrazol-4-yl)-7-(methylsulfonyl)-3,4-dihydro-1H-1,4,10-triazadibenzo[cd,f]azulen-11(10H)-one] | 11 | 80.7 | 3.35
16 | Cn1cc2c3c(c[nH]c3c1=O)CN(C(=O)Nc1ccc(F)cc1)c1ccc(CS(C)(=O)=O)cc1-2 [Example 46] | 13.7 | 152 | 7.48
17 | Cn1cc2c3c(c[nH]c3c1=O)C(CNC(=O)c1ccccc1)N(c1ccc(F)cc1F)c1ccc(CS(C)(=O)=O)cc1-2 (stereo not drawn) [Example 137, N-((4-(2,4-difluorophenyl)-10-methyl-7-((methylsulfonyl)methyl)-11-oxo-3,4,10,11-tetrahydro-1H-1,4,10-triazadibenzo[cd,f]azulen-3-yl)methyl)benzamide] | 51.7 | 240 | 3.87
18 | Cn1cc2c3c(c[nH]c3c1=O)C(c1ccc(-n3ccnc3)cc1)N(c1ccc(F)cc1F)c1ccc(CS(C)(=O)=O)cc1-2 (racemic) [Example 234, 3-(4-(1H-imidazol-1-yl)phenyl)-4-(2,4-difluorophenyl)-10-methyl-7-((methylsulfonyl)methyl)-3,4-dihydro-1H-1,4,10-triazadibenzo[cd,f]azulen-11(10H)-one] | 10.3 | > 1000 | 9.4
19 | CCOC(=O)C1c2c[nH]c3c(=O)n(C)cc(c23)-c2cc(CS(C)(=O)=O)ccc2N1c1ccc(F)cc1 [Example 85, (S)-ethyl 4-(4-fluorophenyl)-10-methyl-7-((methylsulfonyl)methyl)-11-oxo-3,4,10,11-tetrahydro-1H-1,4,10-triazadibenzo[cd,f]azulene-3-carboxylate] | 10.8 | 48.9 | 11.1
